21 molecules from ChEMBL document CHEMBL1932922, “Synthesis, antitubercular evaluation and 3D-QSAR study of N-phenyl-3-(4-fluorophenyl)-4-substituted pyrazole derivatives” (Bioorg Med Chem Lett, 2012) can be followed below.

The assay deals with Mycobacterium tuberculosis. Description: Antituberculosis activity against Mycobacterium tuberculosis H37Rv ATCC 27294 by modified BACTEC 460 method. In kind it is functional, organism-based. The conditions noted are these: for IC90 / IC50: Mycobacterium tuberculosis, H37Rv ATCC 27294.

For orientation: IC90 means the point of the concentration-response curve where the effect stands at 90%. In turn, `Nc1nc(-c2ccccc2)cc(-c2cn(-c3ccccc3)nc2-c2ccc(F)cc2)n1` gave a pIC90 of 5 and an IC90 of 9.94 µM. Where the note is “read-out: IC50”, the IC50 stood at 5.94 µM. For the same molecule, for the setting “read-out: pIC50 (converted)”, the IC50 was 5.89 µM.

Consider `Nc1nc(-c2ccc(Cl)cc2)cc(-c2cn(-c3ccccc3)nc2-c2ccc(F)cc2)n1`, for which the pIC90 was <3.65 and the 90% effect concentration (IC90) was > 226 µM. The IC50 (read-out: IC50) worked out at 95.5 µM. Further, the IC50 (read-out: pIC50 (converted)) was 95.5 µM.

`O=NN1N=C(c2ccc(Br)cc2)C[C@@H]1c1cn(-c2ccccc2)nc1-c1ccc(F)cc1` showed a pIC90 of 4.47 and an IC90 of 33.7 µM. In addition, the IC50 (read-out: IC50) was found to be 21.4 µM. The IC50 (read-out: pIC50 (converted)) was 21.4 µM.

`Nc1ccc(C2=NN(N=O)[C@@H](c3cn(-c4ccccc4)nc3-c3ccc(F)cc3)C2)cc1` had a pIC90 of 4.42 and an IC90 of 37.8 µM. The IC50 (read-out: IC50) is 20.9 µM. The IC50 (read-out: pIC50 (converted)) was 20.9 µM.

In turn, `O=NN1N=C(c2cccs2)C[C@@H]1c1cn(-c2ccccc2)nc1-c1ccc(F)cc1` registered a pIC90 of 4.33 and a concentration for an effect of 90% (IC90) of 46.3 µM. The IC50 (read-out: IC50) worked out at 26.4 µM. In addition, the IC50 (read-out: pIC50 (converted)) was 26.3 µM.

`Cc1ccc(-c2cc(-c3cn(-c4ccccc4)nc3-c3ccc(F)cc3)[nH]c(=S)n2)cc1` returned a pIC90 of 4.45 and an IC90 of 35.5 µM. In addition, where the note is “read-out: IC50”, the IC50 was 22.2 µM. Where the note is “read-out: pIC50 (converted)”, the IC50 is 22.4 µM.

Consider `Fc1ccc(-c2nn(-c3ccccc3)cc2-c2cc(-c3ccc(Cl)cc3)nc(=S)[nH]2)cc1`, for which the pIC90 is reported as 4.74 and the IC90 was found to be 18 µM. The IC50 (read-out: IC50) was 10.3 µM. The IC50 (read-out: pIC50 (converted)) is 10.2 µM.

Take `Oc1ccc(-c2cc(-c3cn(-c4ccccc4)nc3-c3ccc(F)cc3)[nH]c(=S)n2)cc1`: the pIC90 is recorded as <3.64 and the IC90 was > 227 µM. Besides, the IC50 (read-out: IC50) came out at 69.2 µM. For the same molecule, the IC50 (read-out: pIC50 (converted)) is 69.2 µM.

For `Oc1ccccc1-c1cc(-c2cn(-c3ccccc3)nc2-c2ccc(F)cc2)[nH]c(=S)n1`, the pIC90 turned out to be 4.95 and the IC90 stood at 11.2 µM. Also, the IC50 (read-out: IC50) was 8.29 µM. In addition, for the setting “read-out: pIC50 (converted)”, the IC50 is 8.32 µM.

Take `O=[N+]([O-])c1ccc(-c2cc(-c3cn(-c4ccccc4)nc3-c3ccc(F)cc3)[nH]c(=S)n2)cc1`: the pIC90 amounted to 4.88 and it took 13.1 µM to reach the 90% level (IC90). The IC50 (read-out: IC50) came to 12.2 µM. The IC50 (read-out: pIC50 (converted)) was 12 µM.

`O=[N+]([O-])c1cccc(-c2cc(-c3cn(-c4ccccc4)nc3-c3ccc(F)cc3)[nH]c(=S)n2)c1` had a pIC90 of 4.37 and an IC90 of 43 µM. Besides, where the note is “read-out: IC50”, the IC50 came to 27.9 µM. Besides, the IC50 (read-out: pIC50 (converted)) was 28.2 µM.

Take `Fc1ccc(-c2nn(-c3ccccc3)cc2-c2cc(-c3ccc(Br)cc3)nc(=S)[nH]2)cc1`: the pIC90 is listed as 4.42. Moreover, the IC50 (read-out: pIC50 (converted)) was 115 µM.

Turning to `Nc1ccc(-c2cc(-c3cn(-c4ccccc4)nc3-c3ccc(F)cc3)[nH]c(=S)n2)cc1`, the pIC90 is <3.64 and the IC90 is > 228 µM. For the setting “read-out: IC50”, the IC50 amounted to 22.1 µM. Also, the IC50 (read-out: pIC50 (converted)) was 21.9 µM.

`Fc1ccc(-c2nn(-c3ccccc3)cc2-c2cc(-c3cccs3)nc(=S)[nH]2)cc1` displayed a pIC90 of 4.06 and an IC90 of 86.4 µM. Also, for the setting “read-out: IC50”, the IC50 turned out to be 22.6 µM. In addition, the IC50 (read-out: pIC50 (converted)) was 22.4 µM.

The molecule `Nc1nc(-c2ccc(F)cc2)cc(-c2cn(-c3ccccc3)nc2-c2ccc(F)cc2)n1` showed a pIC90 of 4.07 and an IC90 of 84.3 µM. Also, the IC50 (read-out: IC50) turned out to be 36.8 µM. Moreover, the IC50 (read-out: pIC50 (converted)) is 37.2 µM.

Molecule `Nc1nc(-c2ccc(O)cc2)cc(-c2cn(-c3ccccc3)nc2-c2ccc(F)cc2)n1` displayed a pIC90 of 6.05 and an IC90 of 0.88 µM. For the same molecule, the IC50 (read-out: IC50) amounted to 0.47 µM. Moreover, the IC50 (read-out: pIC50 (converted)) was 0.468 µM.

In turn, `Nc1nc(-c2ccccc2O)cc(-c2cn(-c3ccccc3)nc2-c2ccc(F)cc2)n1` came in with a pIC90 of 4.18 and an IC90 of 65.9 µM. Besides, the IC50 (read-out: IC50) was 57 µM. The IC50 (read-out: pIC50 (converted)) is 57.5 µM.

Turning to `Nc1nc(-c2ccc([N+](=O)[O-])cc2)cc(-c2cn(-c3ccccc3)nc2-c2ccc(F)cc2)n1`, the pIC90 is <3.66 and the IC90 is > 220 µM. Also, for the setting “read-out: IC50”, the IC50 stood at 75.4 µM. For the setting “read-out: pIC50 (converted)”, the IC50 was 75.9 µM.

As to `Nc1nc(-c2cccc([N+](=O)[O-])c2)cc(-c2cn(-c3ccccc3)nc2-c2ccc(F)cc2)n1`, the pIC90 was <3.66 and the IC90 was > 220 µM. Moreover, the IC50 (read-out: IC50) is 52.9 µM. The IC50 (read-out: pIC50 (converted)) was 52.5 µM.

The molecule `Nc1nc(-c2ccc(Br)cc2)cc(-c2cn(-c3ccccc3)nc2-c2ccc(F)cc2)n1` returned a pIC90 of 4.84 and an IC90 of 14.5 µM. The IC50 (read-out: IC50) came out at 10.6 µM. Moreover, the IC50 (read-out: pIC50 (converted)) was 10.7 µM.

As to `Nc1ccc(-c2cc(-c3cn(-c4ccccc4)nc3-c3ccc(F)cc3)nc(N)n2)cc1`, the pIC90 stood at 4.82 and the IC90 amounted to 15 µM. Moreover, the IC50 (read-out: IC50) was 13.8 µM. In addition, under “read-out: pIC50 (converted)”, the IC50 is 13.8 µM.
